Measured values taken from the supplement of paper PMC10307832.

Tests used:
Assay in all cases: relative viability (nuclei count vs DMSO), 5 days (fraction); higher = more cells survive
NCI-H838 = test system: NCI-H838
Procedure, shortened: (§1)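 Lung cancer cell lines, seeded in 1536-well plates, were treated the following day by pin tool with a single drug or with five library-drug doses (not always all listed) in √10 steps on top of a fixed anchor-drug dose. Cells were fixed and nuclei stained in one step after 5 days, and nuclei were counted. Relative viability is the nuclei count for treated wells divided by that for vehicle wells, reported as medians of duplicate plates.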

A549 = test system: A549
Procedure, shortened: as §1

IA-LM = test system: IA-LM
Procedure, shortened: as §1

NCI-H520 = test system: NCI-H520
Procedure, shortened: as §1

RERF-LC-KJ = test system: RERF-LC-KJ
Procedure, shortened: as §1

NCI-H1651 = test system: NCI-H1651
Procedure, shortened: as §1

EBC-1 = test system: EBC-1
Procedure, shortened: as §1

NCI-H650 = test system: NCI-H650
Procedure, shortened: as §1

NCI-H1623 = test system: NCI-H1623
Procedure, shortened: as §1

Calu-6 = test system: Calu-6
Procedure, shortened: as §1

NCI-H1944 = test system: NCI-H1944
Procedure, shortened: as §1

NCI-H1299 = test system: NCI-H1299
Procedure, shortened: as §1

NCI-H1703 = test system: NCI-H1703
Procedure, shortened: as §1

Question: For `COc1nc(C)cnc1NS(=O)(=O)c1cccnc1-c1ccc(-c2nnco2)cc1` [Zibotentan] + COc1cc2c(Oc3ccc(NC(=O)C4(C(=O)Nc5ccc(F)cc5)CC4)cc3F)ccnc2cc1OCCCN1CCOCC1 [Foretinib] (partner 0.25 µM), which relative viability (NCI-H838; first compound 0.08 µM) is on record?
Answer: Its relative viability is 0.992.

Question: And the relative viability (NCI-H838; first compound 0.253 µM)?
Answer: Its relative viability is 0.934.

Question: And the relative viability (NCI-H838; first compound 0.8 µM)?
Answer: Its relative viability is 1.06.

Question: And the relative viability (NCI-H838; first compound 2.53 µM)?
Answer: Its relative viability is 1.08.

Question: What about the relative viability (A549; first compound 0.08 µM) of the same compound?
Answer: The relative viability was 1.02.

Question: What about the relative viability (A549; first compound 0.253 µM) of the same compound?
Answer: The relative viability was 0.916.

Question: And the relative viability (A549; first compound 0.8 µM)?
Answer: The relative viability was 1.1.

Question: And the relative viability (A549; first compound 2.53 µM)?
Answer: Its relative viability is 1.1.

Question: And the relative viability (IA-LM; first compound 0.08 µM)?
Answer: The relative viability was 1.06.

Question: And the relative viability (IA-LM; first compound 0.253 µM)?
Answer: Its relative viability is 1.15.

Question: And the relative viability (IA-LM; first compound 0.8 µM)?
Answer: The relative viability was 1.09.

Question: And the relative viability (IA-LM; first compound 2.53 µM)?
Answer: The relative viability was 1.3.

Question: What about the relative viability (NCI-H520; first compound 0.08 µM) of the same compound?
Answer: The relative viability was 0.811.

Question: And the relative viability (NCI-H520; first compound 0.253 µM)?
Answer: Its relative viability is 0.738.

Question: What about the relative viability (NCI-H520; first compound 0.8 µM) of the same compound?
Answer: Its relative viability is 0.586.

Question: And the relative viability (NCI-H520; first compound 2.53 µM)?
Answer: The relative viability was 0.742.

Question: What about the relative viability (RERF-LC-KJ; first compound 0.08 µM) of the same compound?
Answer: Its relative viability is 0.836.

Question: And the relative viability (RERF-LC-KJ; first compound 0.253 µM)?
Answer: The relative viability was 0.885.

Question: And the relative viability (RERF-LC-KJ; first compound 0.8 µM)?
Answer: Its relative viability is 0.809.

Question: And the relative viability (RERF-LC-KJ; first compound 2.53 µM)?
Answer: The relative viability was 0.849.

Question: What about the relative viability (NCI-H1651; first compound 0.08 µM) of the same compound?
Answer: Its relative viability is 0.815.

Question: And the relative viability (NCI-H1651; first compound 0.253 µM)?
Answer: Its relative viability is 0.569.

Question: And the relative viability (NCI-H1651; first compound 0.8 µM)?
Answer: The relative viability was 0.488.

Question: And the relative viability (NCI-H1651; first compound 2.53 µM)?
Answer: The relative viability was 0.99.

Question: What about the relative viability (EBC-1; first compound 0.08 µM) of the same compound?
Answer: Its relative viability is 0.0991.

Question: What about the relative viability (EBC-1; first compound 0.253 µM) of the same compound?
Answer: The relative viability was 0.0961.

Question: And the relative viability (EBC-1; first compound 0.8 µM)?
Answer: The relative viability was 0.103.

Question: And the relative viability (EBC-1; first compound 2.53 µM)?
Answer: Its relative viability is 0.113.

Question: What about the relative viability (NCI-H650; first compound 0.08 µM) of the same compound?
Answer: Its relative viability is 1.1.

Question: What about the relative viability (NCI-H650; first compound 0.253 µM) of the same compound?
Answer: Its relative viability is 0.877.

Question: And the relative viability (NCI-H650; first compound 0.8 µM)?
Answer: Its relative viability is 1.07.

Question: And the relative viability (NCI-H650; first compound 2.53 µM)?
Answer: The relative viability was 0.994.

Question: What about the relative viability (NCI-H1623; first compound 0.08 µM) of the same compound?
Answer: Its relative viability is 0.84.

Question: And the relative viability (NCI-H1623; first compound 0.253 µM)?
Answer: The relative viability was 0.765.

Question: What about the relative viability (NCI-H1623; first compound 0.8 µM) of the same compound?
Answer: The relative viability was 0.855.

Question: What about the relative viability (NCI-H1623; first compound 2.53 µM) of the same compound?
Answer: The relative viability was 0.771.

Question: What about the relative viability (Calu-6; first compound 0.08 µM) of the same compound?
Answer: Its relative viability is 0.811.

Question: What about the relative viability (Calu-6; first compound 0.253 µM) of the same compound?
Answer: Its relative viability is 0.947.

Question: What about the relative viability (Calu-6; first compound 0.8 µM) of the same compound?
Answer: The relative viability was 0.849.

Question: And the relative viability (Calu-6; first compound 2.53 µM)?
Answer: The relative viability was 0.895.

Question: What about the relative viability (NCI-H1944; first compound 0.08 µM) of the same compound?
Answer: Its relative viability is 1.02.

Question: And the relative viability (NCI-H1944; first compound 0.253 µM)?
Answer: The relative viability was 0.806.

Question: What about the relative viability (NCI-H1944; first compound 0.8 µM) of the same compound?
Answer: The relative viability was 0.898.

Question: And the relative viability (NCI-H1944; first compound 2.53 µM)?
Answer: The relative viability was 0.908.

Question: And the relative viability (NCI-H1299; first compound 0.08 µM)?
Answer: The relative viability was 1.11.

Question: And the relative viability (NCI-H1299; first compound 0.253 µM)?
Answer: Its relative viability is 1.05.

Question: And the relative viability (NCI-H1299; first compound 0.8 µM)?
Answer: Its relative viability is 1.05.

Question: What about the relative viability (NCI-H1299; first compound 2.53 µM) of the same compound?
Answer: The relative viability was 1.13.

Question: And the relative viability (NCI-H1703; first compound 0.08 µM)?
Answer: Its relative viability is 0.422.

Question: What about the relative viability (NCI-H1703; first compound 0.253 µM) of the same compound?
Answer: Its relative viability is 0.347.

Question: What about the relative viability (NCI-H1703; first compound 0.8 µM) of the same compound?
Answer: Its relative viability is 0.395.

Question: And the relative viability (NCI-H1703; first compound 2.53 µM)?
Answer: Its relative viability is 0.314.

Question: With `COc1nc(C)cnc1NS(=O)(=O)c1cccnc1-c1ccc(-c2nnco2)cc1` [Zibotentan] + N=C(N)NC(=N)NCCc1ccccc1 [Phenformin] (partner 250 µM) as the compound, how does the relative viability (NCI-H838; first compound 0.08 µM) read?
Answer: The relative viability was 0.586.

Question: What about the relative viability (NCI-H838; first compound 0.253 µM) of the same compound?
Answer: Its relative viability is 0.586.

Question: What about the relative viability (NCI-H838; first compound 0.8 µM) of the same compound?
Answer: The relative viability was 0.55.

Question: What about the relative viability (NCI-H838; first compound 2.53 µM) of the same compound?
Answer: Its relative viability is 0.567.

Question: What about the relative viability (A549; first compound 0.08 µM) of the same compound?
Answer: The relative viability was 0.184.

Question: What about the relative viability (A549; first compound 0.253 µM) of the same compound?
Answer: The relative viability was 0.136.

Question: What about the relative viability (A549; first compound 0.8 µM) of the same compound?
Answer: Its relative viability is 0.183.

Question: What about the relative viability (A549; first compound 2.53 µM) of the same compound?
Answer: Its relative viability is 0.135.

Question: What about the relative viability (NCI-H520; first compound 0.08 µM) of the same compound?
Answer: The relative viability was 0.726.

Question: And the relative viability (NCI-H520; first compound 0.253 µM)?
Answer: The relative viability was 0.58.

Question: And the relative viability (NCI-H520; first compound 0.8 µM)?
Answer: The relative viability was 0.519.

Question: What about the relative viability (NCI-H520; first compound 2.53 µM) of the same compound?
Answer: Its relative viability is 0.581.

Question: What about the relative viability (RERF-LC-KJ; first compound 0.08 µM) of the same compound?
Answer: Its relative viability is 0.423.

Question: What about the relative viability (RERF-LC-KJ; first compound 0.8 µM) of the same compound?
Answer: Its relative viability is 0.418.

Question: And the relative viability (RERF-LC-KJ; first compound 2.53 µM)?
Answer: Its relative viability is 0.447.

Question: And the relative viability (NCI-H1651; first compound 0.08 µM)?
Answer: Its relative viability is 0.38.

Question: And the relative viability (NCI-H1651; first compound 0.253 µM)?
Answer: The relative viability was 0.264.

Question: What about the relative viability (NCI-H1651; first compound 0.8 µM) of the same compound?
Answer: Its relative viability is 0.294.

Question: What about the relative viability (NCI-H1651; first compound 2.53 µM) of the same compound?
Answer: Its relative viability is 0.339.

Question: What about the relative viability (NCI-H650; first compound 0.08 µM) of the same compound?
Answer: The relative viability was 0.445.

Question: What about the relative viability (NCI-H650; first compound 0.253 µM) of the same compound?
Answer: The relative viability was 0.389.

Question: And the relative viability (NCI-H650; first compound 0.8 µM)?
Answer: Its relative viability is 0.508.

Question: What about the relative viability (NCI-H650; first compound 2.53 µM) of the same compound?
Answer: The relative viability was 0.461.

Question: What about the relative viability (NCI-H1623; first compound 0.08 µM) of the same compound?
Answer: The relative viability was 0.592.

Question: What about the relative viability (NCI-H1623; first compound 0.8 µM) of the same compound?
Answer: The relative viability was 0.626.

Question: What about the relative viability (NCI-H1623; first compound 2.53 µM) of the same compound?
Answer: The relative viability was 0.564.

Question: What about the relative viability (NCI-H1944; first compound 0.08 µM) of the same compound?
Answer: Its relative viability is 0.226.

Question: And the relative viability (NCI-H1944; first compound 0.253 µM)?
Answer: Its relative viability is 0.181.

Question: And the relative viability (NCI-H1944; first compound 0.8 µM)?
Answer: The relative viability was 0.188.

Question: And the relative viability (NCI-H1944; first compound 2.53 µM)?
Answer: The relative viability was 0.202.
